Results reported in patent publication US20240041042A1, “1-(PYRIDYL)-5-AZINYLPYRAZOLE DERIVATIVES, AND THEIR USE FOR CONTROL OF UNDESIRED PLANT GROWTH” (Bayer Aktiengesellschaft, priority 2020, published 2024).
Like-named read-outs stand apart in the source and are kept apart here.

Tests used:
Type in all cases: in vivo
[1] = tested on: Alopecurus myosuroides (ALOMY); assay: Pre-emergence herbicidal action against ALOMY; settings: scored visually after about 3 weeks, 100% = plants have died
Source text: (§1) Seeds of monocotyledonous and dicotyledonous weed plants and crop plants are placed in plastic or organic planting pots and covered with soil. The compounds of the invention, formulated in the form of wettable powders (WP) or as emulsion concentrates (EC), are then applied to the surface of the covering soil as aqueous suspension or emulsion with addition of 0.5% additive at a water application rate equivalent to 600 l/ha. After the treatment, the pots are placed in a greenhouse and kept under good growth conditions for the trial plants. After about 3 weeks, the effect of the preparations is scored visually in comparison with untreated controls as percentages. For example, 100% activity=the plants have died, 0% activity=like control plants.
(§2) Tables A1 to A13 below show the effects of selected compounds of the general formula (I) on various harmful plants and at an application rate corresponding to 320 g/ha or lower, which were obtained by the experimental procedure mentioned above. The appendices “a”, “b” and “c” give differentiation by dosage used with otherwise the same harmful plants tested.

[2] = tested on: Amaranthus retroflexus (AMARE); assay: Pre-emergence herbicidal action against AMARE; settings: visual scoring after about 3 weeks vs untreated controls
Source text: as §1, §2

[3] = tested on: Avena fatua (AVEFA); assay: Pre-emergence herbicidal action against AVEFA; settings: visual scoring after about 3 weeks vs untreated controls
Source text: as §1, §2

[4] = tested on: Echinochloa crus-galli (ECHCG); assay: Pre-emergence herbicidal action against ECHCG
Source text: as §1, §2

[5] = tested on: Lolium rigidum (LOLRI); assay: Pre-emergence herbicidal action against LOLRI
Source text: as §1, §2

[6] = tested on: Matricaria inodora (MATIN); assay: Pre-emergence herbicidal action against MATIN; settings: dosage 320 g/ha
Source text: as §1, §2

[7] = tested on: Polygonum convolvulus (POLCO); assay: Pre-emergence herbicidal action against POLCO
Source text: as §1, §2

[8] = tested on: Setaria viridis (SETVI); assay: Pre-emergence herbicidal action against SETVI
Source text: as §1, §2

[9] = tested on: Verconica persica (VERPE); assay: Pre-emergence herbicidal action against VERPE
Source text: as §1, §2

[10] = tested on: Viola tricolor (VIOTR); assay: Pre-emergence herbicidal action against VIOTR
Source text: as §1, §2

[11] = tested on: Alopecurus myosuroides (ALOMY); assay: Post-emergence herbicidal action against ALOMY; settings: 80 g/ha, visual rating about 3 weeks after treatment vs untreated controls (100% = plants have died, 0% = like control plants)
Method: (§3) Seeds of monocotyledonous and dicotyledonous weeds and crop plants are placed in sandy loam in plastic or organic planting pots, covered with soil and cultivated in a greenhouse under controlled growth conditions. 2 to 3 weeks after sowing, the test plants are treated at the one-leaf stage. The compounds of the invention, formulated in the form of wettable powders (WP) or as emulsion concentrates (EC), are then sprayed onto the green parts of the plants as aqueous suspension or emulsion with addition of 0.5% additive at a water application rate of 600 l/ha (converted). After the test plants have been kept in the greenhouse under optimum growth conditions for about 3 weeks, the activity of the preparations is rated visually in comparison to untreated controls. For example, 100% activity=the plants have died, 0% activity=like control plants.
(§4) Tables B1 to B13 below show the effects of selected compounds of the general formula (I) according to Table 1 on various harmful plants and at an application rate corresponding to 320 g/ha or lower, which were obtained by the experimental procedure mentioned above. The appendices “a”, “b” and “c” give differentiation by dosage used with otherwise the same harmful plants tested.

[12] = tested on: Avena fatua (AVEFA); assay: Post-emergence herbicidal action against AVEFA; settings: 80 g/ha, visual rating about 3 weeks after treatment
Method: as §3, §4

[13] = tested on: Lolium rigidum (LOLRI); assay: Post-emergence herbicidal action against LOLRI; settings: dosage 80 g/ha
Method: as §3, §4

[14] = tested on: Pharbitis purpurea (PHBPU); assay: Post-emergence herbicidal action against PHBPU; settings: dosage 80 g/ha
Method: as §3, §4

[15] = tested on: Verconica persica (VERPE); assay: Post-emergence herbicidal action against VERPE; settings: dosage 80 g/ha
Method: as §3, §4

[16] = tested on: Oryza sativa (ORYSA); settings: crop plant compatibility
Method: as §3
(§5) The observed effects on selected crop plants are reported here in comparison to the untreated controls (values in %). The appendices “a”, “b” and “c” give differentiation by dosage used with otherwise the same crop plants tested.

[17] = tested on: Zea mays (ZEAMX); settings: for Post-emergence action against ZEAMX in % (crop plant compatibility): 20 g/ha, effect in comparison to untreated controls; for Post-emergence action against ZEAMX in %: crop plant compatibility, 80 g/ha, effect vs untreated controls
Method: as §3, §5

[18] = tested on: Pharbitis purpurea (PHBPU); assay: Pre-emergence herbicidal action against PHBPU; settings: dosage 320 g/ha
Source text: as §1, §2

[19] = tested on: Amaranthus retroflexus (AMARE); assay: Post-emergence herbicidal action against AMARE; settings: 80 g/ha, visual rating about 3 weeks after treatment vs untreated controls (100% = plants have died, 0% = like control plants)
Method: as §3, §4

[20] = tested on: Echinochloa crus-galli (ECHCG); assay: Post-emergence herbicidal action against ECHCG; settings: dosage 80 g/ha
Method: as §3, §4

[21] = tested on: Setaria viridis (SETVI); assay: Post-emergence herbicidal action against SETVI; settings: dosage 80 g/ha
Method: as §3, §4

[22] = 20 g/ha, effect vs untreated controls
[23] = 80 g/ha, effect in comparison to untreated controls

| Structure (SMILES) | Pre-emergence action against ALOMY ([1]; 80 g/ha) [%] | Pre-emergence action against ALOMY ([1]; 320 g/ha) [%] | Pre-emergence action against AMARE in % ([2]; 80 g/ha) [%] | Pre-emergence action against AMARE in % ([2]; 320 g/ha) [%] | Pre-emergence action against AVEFA in % ([3]; 320 g/ha) [%] | Pre-emergence action against ECHCG in % ([4]; dosage 320 g/ha) [%] | Pre-emergence action against LOLRI in % ([5]; dosage 80 g/ha) [%] | Pre-emergence action against LOLRI in % ([5]; dosage 320 g/ha) [%] | Pre-emergence action against MATIN in % [6] [%] | Pre-emergence action against SETVI in % ([8]; dosage 80 g/ha) [%] | Pre-emergence action against SETVI in % ([8]; dosage 320 g/ha) [%] | Pre-emergence action against VERPE in % ([9]; dosage 320 g/ha) [%] | Pre-emergence action against VIOTR in % ([10]; 320 g/ha, Viola tricolor) [%] | Pre-emergence action against VIOTR in % ([10]; dosage 80 g/ha) [%] | Post-emergence action against ALOMY in % [11] [%] | Post-emergence action against AVEFA in % [12] [%] | Post-emergence action against LOLRI in % [13] [%] | Post-emergence action against PHBPU in % [14] [%] | Post-emergence action against VERPE in % [15] [%] | Post-emergence action against ZEAMX in % (crop plant compatibility) [17] [%] | further results |
| --- | --- | --- | --- | --- | --- | --- | --- | --- | --- | --- | --- | --- | --- | --- | --- | --- | --- | --- | --- | --- | --- |
| COCCOCCOC(=O)[C@@H](C)Oc1nn(-c2ncccc2F)c(-c2ccc(F)nc2)c1Br [Example I-34] | 90 | 100 | 100 | 100 | 90 | 100 | 90 | 100 | 90 | 90 | 100 | 100 | 100 | 100 | 90 | 90 | 80 | 80 | 90 | 10 | Pre-emergence action against AVEFA in % ([3]; 80 g/ha): 80%; Pre-emergence action against POLCO in % ([7]; dosage 80 g/ha): 80%; Pre-emergence action against POLCO in % ([7]; dosage 320 g/ha): 90%; Pre-emergence action against VERPE in % ([9]; dosage 80 g/ha): 90%; Post-emergence action against ORYSA in % [16, 22]: 10%; Post-emergence action against ORYSA in % [16, 23]: 20%; Post-emergence action against ZEAMX in % [17]: 10% |
| CCOC(=O)COc1nn(-c2ncccc2F)c(-c2ccc(F)nc2)c1C1CC1 [Example I-40] | 100 | 100 | 80 | 100 | 100 | 100 | 90 | 100 |  | 100 | 100 | 100 | 100 | 90 | 100 | 80 | 90 | 80 | 80 | 0 | Pre-emergence action against ECHCG in % ([4]; dosage 80 g/ha): 90%; Pre-emergence action against PHBPU in % [18]: 80%; Pre-emergence action against POLCO in % ([7]; dosage 320 g/ha): 80%; Post-emergence action against AMARE in % [19]: 80%; Post-emergence action against ECHCG in % [20]: 90%; Post-emergence action against SETVI in % [21]: 80%; Post-emergence action against ZEAMX in % [17]: 20% |
| CCOC(=O)[C@@H](C)Oc1nn(-c2ccccn2)c(-c2ccc(F)nc2)c1Br [Example I-91] | 90 | 100 | 90 | 100 | 100 | 100 | 100 | 100 | 90 | 100 | 100 | 100 | 100 | 90 | 90 | 90 | 90 | 80 | 80 | 20 | Post-emergence action against AMARE in % [19]: 90%; Post-emergence action against ECHCG in % [20]: 80%; Post-emergence action against SETVI in % [21]: 80%; Post-emergence action against ORYSA in % [16, 22]: 0%; Post-emergence action against ORYSA in % [16, 23]: 20% |
